Laboratory results taken from paper PMC4376002 (Frontiers in Bioengineering and Biotechnology, 2015).
≈ marks a conversion by molar mass, not a printed value.

Legend:
[1] = system: Mip-like protein of Burkholderia pseudomallei (BpML1); settings: ref Norville et al., 2011; read-out: IC50-value toward BpML1; cited from earlier work
Mip of L. pneumophila = Mip of L. pneumophila (Legionella pneumophila subsp. pneumophila, UniProt Q5ZXE0); assay: biochemical; type: biochemical
[2] = system: L. pneumophila Corby (WT); assay: microbe, parasite or virus in culture; type: cell-based, Legionella pneumophila; settings: for influence on the viability of wild type L. pneumophila: liquic culture; for MIC: Legionella pneumophila, 48 h, read-out: WT MIC, growth in YEB, 10 to 100 μM, 37°C, 2 days
human FKBP12 = human FKBP12 (Homo sapiens, UniProt P62942); assay: biochemical
[3] = system: L. pneumophila Corby in differentiated THP-1 macrophages; type: cell-based, Legionella pneumophila; settings: compound added 2 h post infection, cfu/ml 24 h post infection; for effect on bacterial replication in THP-1 cells: up to 100 μM; for concentration at which suppression of bacterial replication in THP-1 cells starts: 12.5 to 100 μM tested
[4] = system: Yersinia pseudotuberculosis; type: cell-based; settings: LB medium, data not shown
[5] = system: Pseudomonas aeruginosa PA01; type: cell-based
[6] = system: Salmonella enterica subsp. Enterica; type: cell-based
Klebsiella aerogenes = type: cell-based
Escherichia coli K12 = type: cell-based
Staphylococcus aureus = type: cell-based
[7] = growth in YEB, 10 to 100 μM, 37°C, 2 days

Mip of L. pneumophila, sequence (Q5ZXE0 21-233 limits assumed): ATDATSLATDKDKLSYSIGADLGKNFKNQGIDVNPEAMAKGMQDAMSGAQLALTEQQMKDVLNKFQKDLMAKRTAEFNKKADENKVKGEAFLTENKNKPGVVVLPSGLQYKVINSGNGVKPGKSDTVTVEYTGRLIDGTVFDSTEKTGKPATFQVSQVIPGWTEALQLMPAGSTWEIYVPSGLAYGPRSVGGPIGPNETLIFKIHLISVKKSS
human FKBP12, sequence (P62942 whole entry): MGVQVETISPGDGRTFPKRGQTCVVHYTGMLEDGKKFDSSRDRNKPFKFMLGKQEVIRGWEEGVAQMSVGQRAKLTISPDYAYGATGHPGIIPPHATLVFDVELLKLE

| SMILES | IC50 (Mip of L. pneumophila) [µM] | WT Inhibition [2, 7] | influence on the viability of wild type L. pneumophila ([2]; 10 to 100 μM) | IC50 (human FKBP12) [µM] | MIC [2] [µM] | other results |
| --- | --- | --- | --- | --- | --- | --- |
| CCOC(=O)CN1C(=O)CC(CC(O)C2CC(C)CC(C)C2=O)CC1=O (centres unmarked) [Cycloheximide-N-ethylethanoate] |  |  |  |  |  | IC50 [1]: 6.5 ± 1 µM |
| C[C@@H]1CC([C@H](O)CC2CC(=O)N(CC(=O)NC(C)(C)C)C(=O)C2)C(=O)[C@@H](C)C1 (some centres unmarked) [MT_30.3] | 33.8 ± 8.6 | - (no inhibition of growth at the highest tested concentration of 100 μM) | no influence |  |  |  |
| C[C@@H]1CC([C@H](O)CC2CC(=O)N(CC(=O)NC34CC5CC(CC(C5)C3)C4)C(=O)C2)C(=O)[C@@H](C)C1 (some centres unmarked) [MT_30.8] | 8.5 ± 2.1 | - (no inhibition of growth at the highest tested concentration of 100 μM) | no influence | 0.4 ± 0.04 |  |  |
| C[C@@H]1CC([C@H](O)CC2CC(=O)N(CC(=O)N(C)C(C)(C)C)C(=O)C2)C(=O)[C@@H](C)C1 (some centres unmarked) [MT_30.9] | 31.7 ± 7.4 |  |  | 36.1 ± 4.1 | 30 (≈ 12.3 µg/mL) | fold less effective than MT_30.32 in the protease coupled PPIase-assay (Mip of L. pneumophila): about 18 fold; effect on bacterial replication in THP-1 cells [3]: no effect |
| CC1CC(C)C(=O)C(C(O)CC2CC(=O)N(CC(=O)NC34CC5CC(C)(CC(C)(C5)C3)C4)C(=O)C2)C1 (centres unmarked) [MT_30.32] | 1.7 ± 0.2 |  |  | 0.18 ± 0.05 | ≥ 30 | IC50-value for Mip relative to FKBP12 (fold higher; FKBP12 inhibited x-fold better) (Mip of L. pneumophila): 10 fold; effect on growth of Y. pseudotuberculosis [4]: none of the tested strains were affected in their growth; effect on growth of P. aeruginosa PA01 [5]: none of the tested strains were affected in their growth; effect on growth of S. enterica subsp. enterica [6]: none of the tested strains were affected in their growth; effect on growth of K. aerogenes (Klebsiella aerogenes): none of the tested strains were affected in their growth; effect on growth of E. coli K12 (Escherichia coli K12): none of the tested strains were affected in their growth; effect on growth of S. aureus (Staphylococcus aureus): none of the tested strains were affected in their growth; concentration at which suppression of bacterial replication in THP-1 cells starts [3]: 50 µM; effect on bacterial replication in THP-1 cells [3]: effectively suppressed bacterial replication; cytotoxicity to THP-1 cells (THP-1 cells): without having cytotoxic side effects |
| C[C@@H]1CC([C@H](O)CC2CC(=O)N(CC(=O)NC34CC5CC(CC(O)(C5)C3)C4)C(=O)C2)C(=O)[C@@H](C)C1 (some centres unmarked) [MT_30.38] | 21.8 ± 3.3 | - (no inhibition of growth at the highest tested concentration of 100 μM) | no influence | 1.2 ± 0.1 |  |  |
| CCC12CC3CC(C1)CC(NC(=O)CN1C(=O)CC(C[C@@H](O)C4C[C@@H](C)C[C@H](C)C4=O)CC1=O)(C3)C2 (some centres unmarked) [MT_30.51] | 5.6 ± 1.1 |  |  | 0.19 ± 0.06 | ≥ 30 | IC50-value for Mip relative to FKBP12 (fold higher; FKBP12 inhibited x-fold better) (Mip of L. pneumophila): about 25 fold; concentration at which suppression of bacterial replication in THP-1 cells starts [3]: 50 µM; effect on bacterial replication in THP-1 cells [3]: effectively suppressed bacterial replication; cytotoxicity to THP-1 cells (THP-1 cells): without having cytotoxic side effects |
| CC1CC(C)C(=O)C(C(O)CC2CC(=O)N(CC(=O)NC34CC5(C)CC(C)(CC(O)(C5)C3)C4)C(=O)C2)C1 (centres unmarked) [MT_30.79] | 4.9 ± 0.9 | - (no inhibition of growth at the highest tested concentration of 100 μM) | no influence | 0.22 ± 0.02 |  | IC50-value for Mip relative to FKBP12 (fold higher; FKBP12 inhibited x-fold better) (Mip of L. pneumophila): about 25 fold |
| C[C@@H]1CC([C@H](O)CC2CC(=O)N(CC(=O)NC34CC5CC(CC(C5)C3)C4)C(=O)C2)[C@H](O)[C@@H](C)C1 (some centres unmarked) [MT_30.92] | 12.6 ± 1.4 |  |  | 1 ± 0.1 | ≥ 30 |  |
| C[C@@H]1CC([C@H](O)CC2CC(=O)N(CC(=O)NC34CC5CC(CC(C5)C3)C4)C(=O)C2)[C@@H](O)[C@@H](C)C1 (some centres unmarked) [MT_30.93] | 16.3 ± 2.6 |  |  | 0.9 ± 0.05 | ≥ 30 |  |
| CO[C@H]1C[C@@H]2CC[C@@H](C)[C@@](O)(O2)C(=O)C(=O)N2CCCC[C@H]2C(=O)O[C@H]([C@H](C)C[C@@H]2CC[C@@H](O)[C@H](OC)C2)CC(=O)[C@H](C)/C=C(\C)[C@@H](O)[C@@H](OC)C(=O)[C@H](C)C[C@H](C)/C=C/C=C/C=C/1C [Rapamycin, reference compound] |  |  |  |  | ≥ 40 | WT MIC [2, 7]: 40 µM |
